In data set [1] the target is T1, Prostaglandin G/H synthase 2 (Homo sapiens) (UniProt P35354).
T1 sequence (whole entry): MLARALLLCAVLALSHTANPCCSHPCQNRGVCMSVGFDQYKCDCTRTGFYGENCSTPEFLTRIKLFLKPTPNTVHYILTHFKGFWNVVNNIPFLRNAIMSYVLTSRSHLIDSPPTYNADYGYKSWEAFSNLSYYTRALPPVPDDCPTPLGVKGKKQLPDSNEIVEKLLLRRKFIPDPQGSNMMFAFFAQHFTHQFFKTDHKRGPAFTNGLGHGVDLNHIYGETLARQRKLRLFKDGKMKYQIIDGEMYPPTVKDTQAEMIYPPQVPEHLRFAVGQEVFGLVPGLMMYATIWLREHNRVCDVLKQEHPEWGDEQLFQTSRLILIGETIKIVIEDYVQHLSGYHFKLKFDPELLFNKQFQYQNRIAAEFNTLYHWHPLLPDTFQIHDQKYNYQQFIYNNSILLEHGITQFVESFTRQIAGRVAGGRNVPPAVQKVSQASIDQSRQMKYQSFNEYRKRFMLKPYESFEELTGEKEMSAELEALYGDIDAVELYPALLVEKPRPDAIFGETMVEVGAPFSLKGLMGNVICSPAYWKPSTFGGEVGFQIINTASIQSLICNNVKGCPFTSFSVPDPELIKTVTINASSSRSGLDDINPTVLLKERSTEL
The data set is described as follows: Binding affinity to COX2 (unknown origin).

Data set [2] addresses Prostaglandin G/H synthase 1 (Homo sapiens) (UniProt P23219). The data set can be described thus: Binding affinity to COX1 (unknown origin).
Data set [3] relates to Rattus norvegicus. The data set is described as follows: Anti-inflammatory activity in Rattus norvegicus Wistar (rat) assessed as decrease in cotton pellet-induced granuloma weight at 20 mg/kg, po measured on day 8. Format: functional, organism-based. Also noted: dose 20 mg/kg.
The test system of data set [4] is Rattus norvegicus. The data set is described as follows: Gastrointestinal toxicity in Rattus norvegicus Wistar (rat) assessed as induction of stomach macroscopic damage at 20 mg/kg, po measured on day 8. It is filed as organism-based. Also noted: dose 20 mg/kg, route oral. As to conditions: in vivo.
Data set [5] concerns Rattus norvegicus. The data set is described as follows: Gastrointestinal toxicity in Rattus norvegicus Wistar (rat) assessed as induction of duodenum macroscopic damage at 20 mg/kg, po measured on day 8. It is filed as organism-based. Also noted: dose 20 mg/kg, route oral. The following applies: in vivo.
Data set [6] deals with T2, Prostaglandin G/H synthase 1 (Ovis aries) (UniProt P05979).
T2 sequence (whole entry): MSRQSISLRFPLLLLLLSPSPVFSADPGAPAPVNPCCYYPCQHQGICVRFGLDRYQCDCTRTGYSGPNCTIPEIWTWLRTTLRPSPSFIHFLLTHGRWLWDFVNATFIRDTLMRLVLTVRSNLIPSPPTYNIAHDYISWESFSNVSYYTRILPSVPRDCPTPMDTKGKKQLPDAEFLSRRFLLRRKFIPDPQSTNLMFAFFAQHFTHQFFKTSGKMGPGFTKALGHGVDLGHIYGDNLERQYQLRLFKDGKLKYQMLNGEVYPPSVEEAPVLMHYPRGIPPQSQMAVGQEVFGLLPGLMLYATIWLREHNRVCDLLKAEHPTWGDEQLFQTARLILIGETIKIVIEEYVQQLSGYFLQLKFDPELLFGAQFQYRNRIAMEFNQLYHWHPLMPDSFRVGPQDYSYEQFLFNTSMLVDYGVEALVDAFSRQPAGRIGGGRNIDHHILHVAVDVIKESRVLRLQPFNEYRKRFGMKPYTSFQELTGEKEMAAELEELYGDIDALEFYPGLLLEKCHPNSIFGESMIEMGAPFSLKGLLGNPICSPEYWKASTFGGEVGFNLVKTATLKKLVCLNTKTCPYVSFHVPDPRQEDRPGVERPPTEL
The data set can be described thus: Inhibition of Ovis aries (sheep) COX1 at 0.1 uM by colorimetric analysis.

The test system of data set [7] is Rattus norvegicus. The data set is described as follows: Anti-inflammatory activity in Rattus norvegicus Wistar (rat) assessed as decrease in cotton pellet-induced total weight of granuloma at 20 mg/kg, po measured on day 8. Also noted: dose 20 mg/kg. Format: functional, organism-based.
The test system of data set [8] is Rattus norvegicus. The data set can be described thus: Anti-inflammatory activity in Rattus norvegicus Wistar (rat) assessed as decrease in cotton pellet-induced wet weight of granuloma at 20 mg/kg, po measured on day 8. It is filed as functional, organism-based. Also noted: dose 20 mg/kg.
Data set [9] deals with Rattus norvegicus. The data set is described as follows: Anti-inflammatory activity in Rattus norvegicus Wistar (rat) assessed as decrease in cotton pellet-induced dry weight of granuloma at 20 mg/kg, po measured on day 8. Also noted: dose 20 mg/kg. Format: functional, organism-based.

This note sets out measurements from ChEMBL document CHEMBL3045608, “Docking simulations, synthesis, and anti-inflammatory activity evaluation of 2-(N-alkyl)amino-3-nitroimidazo[1,2-a]pyridines” (Med Chem Res, 2012).

SMILES strings stand for the structures. The source made the active and inactive calls. The calls are words filed in the database; no cut-off is given here.

The term inhibition denotes how much of the control response was suppressed. A higher inhibition goes with strong suppression.

Sequence of Prostaglandin G/H synthase 1 (Homo sapiens) (P23219 whole entry): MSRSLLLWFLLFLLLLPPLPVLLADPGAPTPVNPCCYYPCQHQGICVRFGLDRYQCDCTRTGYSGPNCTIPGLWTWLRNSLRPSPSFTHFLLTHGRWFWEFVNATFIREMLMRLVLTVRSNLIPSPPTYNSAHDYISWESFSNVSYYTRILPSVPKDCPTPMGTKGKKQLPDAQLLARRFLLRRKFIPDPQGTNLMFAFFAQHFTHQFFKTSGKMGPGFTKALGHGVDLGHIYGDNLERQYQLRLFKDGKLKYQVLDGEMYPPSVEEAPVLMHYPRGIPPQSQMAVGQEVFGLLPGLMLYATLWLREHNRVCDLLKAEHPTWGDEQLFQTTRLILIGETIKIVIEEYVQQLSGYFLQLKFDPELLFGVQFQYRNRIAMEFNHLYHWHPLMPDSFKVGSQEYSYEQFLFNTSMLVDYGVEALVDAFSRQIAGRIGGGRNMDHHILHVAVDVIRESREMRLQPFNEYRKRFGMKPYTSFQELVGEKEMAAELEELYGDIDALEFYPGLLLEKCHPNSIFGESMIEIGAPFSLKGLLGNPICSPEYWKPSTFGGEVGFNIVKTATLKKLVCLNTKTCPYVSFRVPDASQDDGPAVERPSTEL

`O=[N+]([O-])c1c(NCc2ccccc2)nc2ccccn12`: the result in [1] and in data set [2] was Active. Further, the outcome in the data set on Rattus norvegicus [3] was inactive. The Activity result with Rattus norvegicus [4] and with Rattus norvegicus [5] was “Non-toxic” throughout.

Consider `CC(C)N(c1nc2ccccn2c1[N+](=O)[O-])C(C)C`, for which, in data set [2], the outcome was Active. Further, the outcome in the data set on Rattus norvegicus [3] was inactive. Also, the Activity entry in the data set on Rattus norvegicus [4] and in the data set with Rattus norvegicus [5] was “Non-toxic” throughout.

Consider `CCCCNc1nc2ccccn2c1[N+](=O)[O-]`, for which, in [2], the outcome was Active.

In turn, `O=[N+]([O-])c1c(NC2CC2)nc2ccccn12` registered an inhibition in [6] of 3.8%. The outcome (in data set [2]; in the data set on Rattus norvegicus [7]; with Rattus norvegicus [8]; in the data set on Rattus norvegicus [9]) was Active. In addition, the Activity entry in the data set on Rattus norvegicus [4] and in the data set on Rattus norvegicus [5] was “Non-toxic” each time.

In the case of `C[C@H](Nc1nc2ccccn2c1[N+](=O)[O-])c1ccccc1`, the result in data set [2] was Active.

For the compound `O=[N+]([O-])c1c(NC2CCCCC2)nc2ccccn12`, the result in [1] and in [2] was Active.

Consider `CCCCN(CCCC)c1nc2ccccn2c1[N+](=O)[O-]`, for which the outcome in [2] was Active.

For `CC(C)Nc1nc2ccccn2c1[N+](=O)[O-]`, the outcome in data set [2] was Active.

Turning to `C[C@@H](Nc1nc2ccccn2c1[N+](=O)[O-])c1ccccc1`, the outcome in data set [1] and in [2] was Active.
